This is an account of results in patent US20230271949A1, “GLP-1R MODULATING COMPOUNDS” (ASCLETIS BIOSCIENCE CO., LTD., priority 2022, published 2023).

Assay [1] addresses T1, GLP-1R (Homo sapiens, UniProt P43220). In words: GLP-1R agonist cAMP stimulation assay (HTRF cAMP). In kind it is cell-based. The following applies: HEK293 cell line expressing GLP-1 target; HTRF cAMP agonist mode, 30 min at RT. An outline of the steps:
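Read-out was HTRF (665/615 ratio), interpolated onto a cAMP standard curve and normalised to DMSO (0%) and maximal GLP-1(7-37) reference (100%) wells. Assay: GLP-1R cells at 1.0×E5/mL incubated with compound dilution series (3-fold, 10 points) for 30 min at room temperature before 60 min detection.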
Background: TR-FRET usually uses a lanthanide donor and a delayed reading to cut background.

Assay [2] concerns the target T1, GLP-1R. In words: Tag-lite binding assay (competition with GLP-1 receptors red agonist). As to conditions: for IC50: HEK293 GLP-1 cells labeled with SNAP-Lumi4-Tb, red agonist 4.917 nM, 23° C., 2 h; for Ki: calculated from sample IC50 and red agonist Kd. How it is done: B. Tag-Lite Binding Assay
The cell line was constructed by WuXi.
10) Dispense cells into cell plate (1.8 M cells/well in 2 ml medium of 6-well plate, total 4 wells).
Second Day: Tag-Lite Binding Assay
3) The cell culture medium is removed from the 6-well plate and then 1 mL of Tag-lite SNAP-Lumi4-Tb diluted in Tag-lite labeling medium are added gently on the cells.
7) The testing compounds and reference compound are serially diluted with 3-fold, 10 points using Echo, then transfer 100 nL compounds to the assay plate.
8) Add the labeled cells to each well according to the plate map, 10000 cells/10 uL/well. Centrifuge the plate at 1000 rpm for 1 min.
9) Incubate the plate at 23° C., 30 min.
10) Add 50 nL of red agonist (final conc.: 4.917 nM) to destination plate using Echo.
11) Incubate the plate at 23° C. for 2 h.
12) Read the plate on an HTRF® compatible reader (at 665 nm and 620 nm).
% Inhibition=100%−(Ratio−LC)/(HC−LC)*100%
HC: The average ratio of adding DMSO wells
LC: The average ratio of adding the top concentration of reference compounds wells
b) The “log (inhibitor) vs. response—Variable slope” model in GraphPad Prism 5.0 was used to fit the dose-response curve of each sample. The sample concentration (x) and its corresponding % Inhibition data (y) were substituted into the model. The sample concentration (abscissa) was x=log(x) transformed. The transformed xy was used as the sample curve to obtain the IC50.
c) Calculate the sample Ki according to the sample IC50 and red agonist Kd. S in the formula is the actual used concentration of red agonist.

As a reminder, the EC50 is the concentration needed to bring the measured effect to its halfway point. A lower EC50 goes with greater potency. In general, IC50 refers to the concentration that gives 50% inhibition. Read a high IC50 as a need for much substance. As usually defined, the Ki is the dissociation constant of the complex between target and ligand, obtained from inhibition or displacement.

T1 sequence (P43220 24-463): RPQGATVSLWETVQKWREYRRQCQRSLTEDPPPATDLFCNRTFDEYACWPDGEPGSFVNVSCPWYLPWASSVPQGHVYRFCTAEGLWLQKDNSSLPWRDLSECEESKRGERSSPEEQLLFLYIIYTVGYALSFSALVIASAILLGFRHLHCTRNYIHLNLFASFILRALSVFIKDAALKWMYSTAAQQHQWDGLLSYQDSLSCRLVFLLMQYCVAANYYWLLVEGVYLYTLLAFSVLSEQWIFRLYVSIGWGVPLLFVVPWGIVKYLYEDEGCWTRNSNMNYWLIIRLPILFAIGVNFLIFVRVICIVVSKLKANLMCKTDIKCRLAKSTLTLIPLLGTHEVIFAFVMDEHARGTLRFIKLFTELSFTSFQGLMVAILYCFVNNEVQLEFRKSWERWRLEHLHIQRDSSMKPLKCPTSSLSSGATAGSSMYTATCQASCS

On to `O=C(Nc1cc(F)c2c(c1)C1(CC1)C(=O)N2)c1ccc2c(c1)nc(CN1CC=C(c3cccc(OCc4ccc(Cl)cc4F)n3)CC1)n2C[C@@H]1CCO1` [Compound 154], for which the EC50 on GLP-1R [1] turned out to be 0.45 nM. Also, on GLP-1R [2], the IC50 was 1580 nM and the Ki is 904 nM.
The matching figures for `O=C(Nc1ccc2[nH]nnc2c1)c1ccc2c(c1)nc(CN1CC=C(c3cccc(OCc4ccc(Cl)cc4F)n3)CC1)n2C[C@@H]1CCO1` [Compound 166]: 0.76 nM, 2650 nM and 1320 nM.
For `Cc1cc(NC(=O)c2ccc3c(c2)nc(CN2CC=C(c4cccc(OCc5ccc(C#N)cc5F)n4)CC2)n3C[C@@H]2CCO2)cc2c1NC(=O)C21CC1` [Compound 178], the EC50 on GLP-1R [1] came to 0.19 nM. At GLP-1R [2], the IC50 was determined as 875 nM and the Ki is 430 nM.
The matching figures for `Cc1n[nH]c2c(F)cc(C(=O)Nc3ccc4c(c3)nc(CN3CC=C(c5cccc(OCc6ccc(Cl)cc6F)n5)CC3)n4C[C@@H]3CCO3)cc12` [Compound 196]: 0.17 nM, 152 nM and 87.9 nM.
For the compound `Cc1n[nH]c2c(C)cc(C(=O)Nc3ccc4c(c3)nc(CN3CC=C(c5cccc(OCc6ccc(Cl)cc6F)n5)CC3)n4C[C@@H]3CCO3)cc12` [Compound 197], at GLP-1R [1], the EC50 turned out to be 0.19 nM. In addition, on GLP-1R [2], the IC50 came to 165 nM and the Ki is 84 nM.
As to `O=C(Nc1ccc2c(c1)nc(CN1CC=C(c3cccc(OCc4ccc(Cl)cc4F)n3)CC1)n2C[C@@H]1CCO1)c1ccc2c(c1)C1(CC1)C(=O)N2` [Compound 203], the EC50 on GLP-1R [1] worked out at 0.24 nM. Also, at GLP-1R [2], the IC50 turned out to be 158 nM and the Ki is 90.3 nM.
As for `O=C(Nc1ccc2c(c1)nc(CN1CC=C(c3cccc(OCc4ccc(Cl)cn4)n3)CC1)n2C[C@@H]1CCO1)c1ccc2[nH]c(=O)[nH]c2c1` [Compound 207], at GLP-1R [1], the EC50 stood at 0.43 nM. On GLP-1R [2], the 50% inhibitory concentration (IC50) is 149 nM and the Ki is 82.4 nM.
At GLP-1R [1], `Cc1n[nH]c2c(C)cc(C(=O)Nc3ccc4c(c3)nc(CN3CC=C(c5cccc(OCc6ccc(C#N)cc6F)n5)CC3)n4C[C@@H]3CCO3)cc12` [Compound 229] yielded an EC50 of 0.21 nM. At GLP-1R [2], the IC50 amounted to 122 nM and the Ki was 75.9 nM.
In the case of `Cc1n[nH]c2c(F)cc(C(=O)Nc3ccc4c(c3)nc(C3CC35CCN(c3cccc(OCc6ccc(Cl)cc6F)n3)CC5)n4CC3CCO3)cc12` (stereo not drawn) [Compound 244], the EC50 at GLP-1R [1] was 0.33 nM. At GLP-1R [2], the IC50 was found to be 189 nM and the Ki is 110 nM.
In the same order, the values of `Cc1n[nH]c2c(C)cc(C(=O)Nc3ccc4c(c3)nc(C3CC35CCN(c3cccc(OCc6ccc(Cl)cc6F)n3)CC5)n4CC3CCO3)cc12` (stereo not drawn) [Compound 245] are 0.51 nM, 146 nM and 82.3 nM.
The matching figures for `Cc1n[nH]c2c(C)cc(NC(=O)c3ccc4nc(CN5CC=C(c6cccc(OCc7ccc(C#N)cc7F)n6)CC5)n(CC5CCO5)c4c3)cc12` (stereo not drawn) [Compound 276]: 0.65 nM, 2460 nM and 1010 nM.
The compound `Cc1n[nH]c2c(F)cc(NC(=O)c3ccc4c(c3)nc(CN3CCC(c5cccc6c5OC(C)(c5ccc(C#N)cc5F)O6)CC3)n4CC3CCO3)cc12` (stereo not drawn) [Compound 334] gave an EC50 on GLP-1R [1] of 0.61 nM. Moreover, on GLP-1R [2], the IC50 worked out at 1210 nM and the Ki was 692 nM.
The matching figures for `Cc1n[nH]c2c(C)cc(NC(=O)c3ccc4c(c3)nc(CN3CCC(c5cccc6c5OC(C)(c5ccc(C#N)cc5F)O6)CC3)n4CC3CCO3)cc12` (stereo not drawn) [Compound 335]: 0.97 nM, 1110 nM and 615 nM.
In the same order, the values of `Cc1n[nH]c2c(F)cc(C(=O)Nc3ccc4c(c3)nc(CN3CCC(c5cccc6c5OC(C)(c5ccc(Cl)cc5F)O6)CC3)n4CC3CCO3)cc12` (stereo not drawn) [Compound 340] are 0.28 nM, 123 nM and 88.5 nM.
With `Cc1n[nH]c2c(C)cc(C(=O)Nc3ccc4c(c3)nc(CN3CCC(c5cccc6c5OC(C)(c5ccc(Cl)cc5F)O6)CC3)n4CC3CCO3)cc12` (stereo not drawn) [Compound 341], the EC50 on GLP-1R [1] was determined as 0.31 nM. Further, on GLP-1R [2], the IC50 worked out at 158 nM and the Ki is 95.5 nM.
The matching figures for `Cc1n[nH]c2ccc(C(=O)Nc3ccc4c(c3)nc(CN3CCC(c5cccc6c5OC(C)(c5ccc(Cl)cc5F)O6)CC3)n4CC3CCO3)cc12` (stereo not drawn) [Compound 342]: 0.91 nM, 140 nM and 72.2 nM.
For `Cc1n[nH]c2c(C)cc(NC(=O)c3ccc4c(c3)nc(CN3CC=C(c5cccc(OCc6ccc(C#N)c7cc(Cl)oc67)n5)CC3)n4C[C@@H]3CCO3)cc12` [Compound 354], on GLP-1R [1], the EC50 came to 0.21 nM. Also, on GLP-1R [2], the IC50 is 2140 nM and the Ki was 1060 nM.
For `Cc1n[nH]c2c(C)cc(NC(=O)c3ccc4c(c3)nc(CN3CC=C(c5cccc6c5O[C@@](C)(c5ccc(Cl)cn5)O6)CC3)n4CC3CCO3)cc12` (stereo partly drawn) [Compound 382], a half-maximal effect on GLP-1R [1] (EC50) was put at 0.1 nM. Moreover, on GLP-1R [2], the IC50 worked out at 689 nM and the Ki was 342 nM.
The compound `Cc1n[nH]c2c(C)cc(NC(=O)c3ccc4c(c3)nc(CN3CC=C(c5cccc6c5O[C@](C)(c5ccc(Cl)cn5)O6)CC3)n4CC3CCO3)cc12` (stereo partly drawn) [Compound 383] gave an EC50 on GLP-1R [1] of 1.92 nM. For the same compound, on GLP-1R [2], the IC50 was found to be 1480 nM and the Ki was 899 nM.
Compound `Cc1n[nH]c2c(C)cc(C(=O)Nc3ccc4c(c3)nc(CN3CC=C(c5cccc6c5O[C@@](C)(c5ccc(Cl)cc5F)O6)CC3)n4CC3CCO3)cc12` (stereo partly drawn) [Compound 384] had an EC50 at GLP-1R [1] of 0.08 nM. Also, on GLP-1R [2], the IC50 was found to be 110 nM and the Ki is 68.3 nM.
The compound `Cc1n[nH]c2c(C)cc(C(=O)Nc3ccc4c(c3)nc(CN3CC=C(c5cccc6c5O[C@](C)(c5ccc(Cl)cc5F)O6)CC3)n4CC3CCO3)cc12` (stereo partly drawn) [Compound 385] gave an EC50 on GLP-1R [1] of 0.61 nM. In addition, on GLP-1R [2], the IC50 worked out at 158 nM and the Ki is 82.7 nM.
`Cc1n[nH]c2c(F)cc(C(=O)Nc3ccc4c(c3)nc(Cc3c(F)cc(-c5cccc6c5O[C@@](C)(c5ccc(Cl)cn5)O6)cc3F)n4CC3CCO3)cc12` (stereo partly drawn) [Compound 386] displayed an EC50 on GLP-1R [1] of 0.15 nM. Besides, on GLP-1R [2], the IC50 worked out at 120 nM and the Ki was 69.9 nM.
On to `Cc1n[nH]c2c(F)cc(C(=O)Nc3ccc4c(c3)nc(Cc3c(F)cc(-c5cccc6c5O[C@](C)(c5ccc(Cl)cn5)O6)cc3F)n4CC3CCO3)cc12` (stereo partly drawn) [Compound 387], for which a half-maximal effect on GLP-1R [1] (EC50) was put at 0.86 nM. On GLP-1R [2], the IC50 is 346 nM and the Ki is 205 nM.
`Cc1n[nH]c2ccc(C(=O)Nc3ccc4c(c3)nc(CN3CC=C(c5cccc(OCc6ccc(Cl)cn6)n5)CC3)n4C[C@@H]3CCO3)cc12` [Compound 391] had an EC50 at GLP-1R [1] of 0.91 nM. In addition, at GLP-1R [2], the IC50 was determined as 116 nM and the Ki is 70.3 nM.
The compound `CCn1cncc1Cn1c(Cc2c(F)cc(-c3cccc(OCc4ccc(Cl)cn4)n3)cc2F)nc2cc(NC(=O)c3cc(F)c4[nH]nc(C)c4c3)ccc21` [Compound 407] yielded an EC50 at GLP-1R [1] of 0.16 nM. In addition, on GLP-1R [2], the IC50 came out at 180 nM and the Ki was 110 nM.
`CCn1cncc1Cn1c(CN2CC=C(c3cccc(OCc4ccc(Cl)cc4F)n3)CC2)nc2cc(NC(=O)c3cc(F)c4[nH]nc(C)c4c3)ccc21` [Compound 408] yielded an EC50 on GLP-1R [1] of 0.21 nM. Also, on GLP-1R [2], the IC50 worked out at 106 nM and the Ki is 68.4 nM.
In the case of `CCn1cncc1Cn1c(Cc2c(F)cc(-c3cccc4c3OC(C)(c3ccc(Cl)cn3)O4)cc2F)nc2cc(NC(=O)c3cc(F)c4[nH]nc(C)c4c3)ccc21` (stereo not drawn) [Compound 409], the EC50 at GLP-1R [1] worked out at 0.42 nM. On GLP-1R [2], the IC50 came to 486 nM and the inhibitory constant (Ki) was 237 nM.
Take `CCn1cncc1Cn1c(Cc2c(F)cc(-c3cccc4c3O[C@@](C)(c3ccc(Cl)cn3)O4)cc2F)nc2cc(NC(=O)c3cc(F)c4[nH]nc(C)c4c3)ccc21` [Compound 411]: the EC50 at GLP-1R [1] stood at 0.33 nM. Besides, on GLP-1R [2], the IC50 came out at 120 nM and the Ki is 72.6 nM.
The matching figures for `Cc1n[nH]c2c(F)cc(C(=O)Nc3ccc4c(c3)nc(Cc3cc(F)c(-c5cccc(OCc6ccc(Cl)cc6F)n5)cc3F)n4C[C@@H]3CCO3)cc12` [Compound 413]: 0.49 nM, 28 nM and 14.1 nM.
`CCn1cncc1Cn1c(Cc2cc(F)c(-c3cccc(OCc4ccc(Cl)cc4F)n3)cc2F)nc2cc(NC(=O)c3cc(F)c4[nH]nc(C)c4c3)ccc21` [Compound 414] registered an EC50 at GLP-1R [1] of 0.57 nM. In addition, on GLP-1R [2], the IC50 is 31.7 nM and the Ki was 15.6 nM.
In turn, `CCn1cncc1Cn1c(Cc2c(F)cc(-c3cccc(OCc4ccc(Cl)cc4F)n3)cc2F)nc2cc(NC(=O)c3cc(F)c4[nH]nc(C)c4c3)ccc21` [Compound 415] had an EC50 at GLP-1R [1] of 0.71 nM. Besides, at GLP-1R [2], the IC50 amounted to 233 nM and the Ki was 117 nM.
